In PubChem BioAssay (NCI):
Where “and” joins values, the source holds several entries; their conditions need not be identical. Equal values may be shown once.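 These data come from cells grown in 96-well plates and exposed to compound for 48 hours at five concentrations. The concentration for 50% growth inhibition is given as GI50. Definition used: TGI = concentration required for complete inhibition of growth.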

Experiments:
Experiment in all cases: NCI-60 cell line screen, 48 h
M14 melanoma = system: M14 melanoma
UACC-257 melanoma = system: UACC-257 melanoma
HOP-92 NSCLC = system: HOP-92 NSCLC
HCT-15 colon = system: HCT-15 colon
SK-MEL-28 melanoma = system: SK-MEL-28 melanoma
OVCAR-4 ovarian = system: OVCAR-4 ovarian
ACHN renal = system: ACHN renal
CCRF-CEM leukemia = system: CCRF-CEM leukemia
NCI-H226 lung = system: NCI-H226 lung
SR leukemia = system: SR leukemia

SMILES | TGI (M14 melanoma) | GI50 (UACC-257 melanoma) | TGI (UACC-257 melanoma) | GI50 (HOP-92 NSCLC) | TGI (HOP-92 NSCLC) | TGI (HCT-15 colon) | GI50 (SK-MEL-28 melanoma) | TGI (SK-MEL-28 melanoma) | GI50 (OVCAR-4 ovarian) | TGI (OVCAR-4 ovarian) | GI50 (ACHN renal) | TGI (ACHN renal) | GI50 (CCRF-CEM leukemia) | TGI (CCRF-CEM leukemia) | TGI (NCI-H226 lung) | TGI (SR leukemia) | GI50 (M14 melanoma) | GI50 (HCT-15 colon) | GI50 (NCI-H226 lung) | GI50 (SR leukemia)
CO[C@H]1C[C@](C)(O)Cc2cc3c(c(O)c21)C(=O)c1c(O)cc2c(c1C3=O)O[C@@H]1O[C@@]2(C)[C@H](O)[C@@H](N(C)C)[C@@H]1O | 2.58 µM and 4.49 µM | 3.78 µM | 7.55 µM and 31.6 µM | 1.81 µM | 7.76 µM and 2.96 µM | 3.4 µM and 10.9 µM | 1.62 µM | 3.35 µM and 19.4 µM | 1.87 µM | 3.46 µM and 12.6 µM | 0.107 µM | 1.31 µM and 1.9 µM | 0.18 µM | 1.22 µM and 4.21 µM | 3.26 µM and 5.15 µM | 0.647 µM | – | – | – | –
CCCCCCCC(=O)SCC/C=C/[C@@H]1CC(=O)NCc2nc(cs2)C2=N[C@@](C)(CS2)C(=O)N[C@@H](C(C)C)C(=O)N1 | > 100 µM | < 0.01 µM | 0.0392 µM | < 0.0119 µM | 0.229 µM | 97 µM | 0.0185 µM | 25.8 µM | 0.0212 µM | > 100 µM | 0.508 µM | 12 µM | 0.0265 µM | > 100 µM | 22.2 µM | > 100 µM | 0.0323 µM | 3.42 µM | 0.906 µM | < 0.0112 µM
CC(=O)/C=C/C1=C(c2csc3ccccc23)c2ccccc2CC1 | 37.3 µM | 20.8 µM | 53.9 µM | 19.5 µM | 65.3 µM | > 100 µM | 16.9 µM | 37.1 µM | 17.8 µM | > 100 µM | 25.4 µM | 88.3 µM | 23.2 µM | 79.4 µM | 44.1 µM | 64.6 µM | 16.5 µM | 23.5 µM | 19.8 µM | 16 µM
CC1CC(C)C2OC2(C)C[C@H](C)C(=O)NC(C)C(=O)N(C)[C@H](Cc2c(Br)[nH]c3ccccc23)C(=O)N[C@@H](c2ccc(O)cc2)CC(=O)O1 (some centres undefined) | 19.5 µM | – | 13.3 µM | – | 0.638 µM | > 100 µM | – | 12.2 µM | – | 1.09 µM | – | 27.2 µM | – | > 65 µM | 2.23 µM | > 100 µM | – | – | – | –
C[C@H]1CNC(=O)c2cnn3ccc(nc23)N[C@H](C)c2cc(F)ccc2O1 | > 100 µM | 6.45 µM | > 94 µM | 0.184 µM | 0.998 µM | 13.4 µM | 18.5 µM | > 100 µM | 1.67 µM | 26.6 µM | 0.558 µM | 4.36 µM | 0.444 µM | > 67.2 µM | 3.83 µM | 19.2 µM | 1.78 µM | 2.05 µM | 1.03 µM | 0.05 µM
COC(=O)c1c2c(c(C)[n+]([O-])c1C)C(=O)C=C(NCc1cccc(Cl)c1)C2=O | 1.56 µM | 0.234 µM | 0.725 µM | 1.81 µM | 4.1 µM | 1.52 µM | 0.716 µM | 2.09 µM | 0.21 µM | 0.938 µM | 0.661 µM | 2.04 µM | 0.444 µM | – | 3.55 µM | 6.64 µM | 0.28 µM | 0.205 µM | 1.41 µM | 0.35 µM
COc1cc(NS(C)(=O)=O)ccc1NCc1c2ccccc2nc2ccccc12 | > 100 µM | – | > 100 µM | – | 92.7 µM | > 100 µM | – | > 100 µM | – | 22.3 µM | – | > 100 µM | – | 33.5 µM | > 100 µM | 62.9 µM | – | – | – | –
Cc1nc(N)nc(N)c1CCCc1ccccc1 | 64.2 µM | – | > 100 µM | – | 46.6 µM | > 100 µM | – | 86.1 µM | – | > 100 µM | – | > 100 µM | – | > 100 µM | > 100 µM | > 100 µM | – | – | – | –
O=C(Nc1ccc(F)cc1)Nc1ccc(Br)c(C(F)(F)F)c1 | 7.41 µM | 2.73 µM | 7.51 µM | 1.63 µM | 5.24 µM | 10.8 µM | 2.83 µM | 11.1 µM | 2.13 µM | 9.75 µM | 2.09 µM | 7.64 µM | 2.27 µM | 6.53 µM | 11.1 µM | 6.49 µM | 2.29 µM | 2.35 µM | 2.73 µM | 1.88 µM
CC1=NOC(=O)/C1=C/c1ccc([N+](=O)[O-])cc1 | > 100 µM | – | > 100 µM | – | > 100 µM | > 100 µM | – | > 100 µM | – | > 100 µM | – | > 100 µM | – | > 100 µM | > 100 µM | > 100 µM | – | – | – | –
Cc1ccc2c(c1)C(=O)c1c-2c(OCCCN(C)C)nc2ccccc12 | 3.23 µM | 3.06 µM | 5.82 µM | 2.18 µM | 11.6 µM | 1.94 µM | 1.76 µM | 3.41 µM | 2.73 µM | 13.1 µM | 0.731 µM | 2.11 µM | 1.62 µM | 9.13 µM | 13.7 µM | 1.38 µM | 1.62 µM | 0.548 µM | 2.49 µM | 0.316 µM
CC(=O)NC(CSC1=C2NC(=O)\C=C/C=C/C=C\C(C)C(O)CC(=O)/C(C)=C\CC(O)/C=C/C(C)C(O)C(C)C=C(C)C(=O)c3c(O)c(C)cc(c3C1=O)C2=O)C(=O)O (centres undefined) | > 100 µM | – | > 100 µM | – | > 100 µM | > 100 µM | – | > 100 µM | – | > 100 µM | – | > 100 µM | – | 78.9 µM | > 100 µM | > 100 µM | – | – | – | –
COC(=O)Nc1nc2ccc(C(=O)c3ccccc3)cc2[nH]1 | 6.6 µM | 38 µM | > 100 µM | – | > 85.9 µM | > 100 µM | 0.651 µM and 0.464 µM | > 100 µM | 3.88 µM and 3.13 µM | > 100 µM | 2.23 µM and 1.33 µM | > 100 µM | 0.398 µM and 0.458 µM | > 100 µM | 28.9 µM and > 100 µM | 28.1 µM and > 100 µM | 0.427 µM and 0.257 µM | 0.451 µM and 0.21 µM | 1.05 µM and 0.441 µM | 0.168 µM and 0.0444 µM
Nc1nc2cc(CC[C@H]3C[C@@H](n4ccc5c(N)ncnc54)[C@H](O)[C@@H]3O)ccc2cc1Br | 25.6 µM | 3.68 µM | 19 µM | 6.66 µM | 39.9 µM | 25.6 µM | 12.2 µM | 25.4 µM | 2.06 µM | 19.1 µM | 12.3 µM | 28.5 µM | 12.3 µM | > 100 µM | 26.8 µM | > 100 µM | 11.4 µM | 11.3 µM | 2.71 µM | 18.7 µM
